Earlier results, collected in patent publication US8679507B2, “Testosterone olfaction” (priority 2012, dated 2014).

Tested on: human females
Details: female college students, upper lip exposed; follicular phase

## C[C@]12CC[C@@H](O)C[C@@H]1CC[C@@H]1[C@@H]2CC[C@]2(C)C=CC[C@@H]12 [androstenol]
  frequency of the LH pulse: decreased
